From PMC7552967, “Anti-Melanoma Activities of Artemisone and Prenylated Amino-Artemisinins in Combination With Known Anticancer Drugs” (Frontiers in Pharmacology, 2020)

Columns and labels:
A375 melanoma cells [1] = assay: MTT cell viability assay, A375; type: cell-based, human; settings: for IC50: MTT, 24 h, combinations 1:1
Source text: (§1) The human cell lines TK10 (human kidney adenocarcinoma), UACC62 (human melanoma) and MCF7 (human breast adenocarcinoma) were obtained from the National Cancer Institute (NCI) as part of a panel widely studied for drug screening and molecular target identification. […] The nontumorigenic human immortalized keratinocyte (HaCaT) cells were a kind donation by the School of Anatomical Sciences, Faculty of Health Sciences, University of the Witwatersrand, South Africa. […] All reagents were of analytical grade and were obtained from Merck (Darmstadt, Germany) unless stated otherwise. Cells were cultured in Dulbecco’s modified essential medium (DMEM; Hyclone, GE healthcare, South Logan, UT, USA) containing 10% fetal bovine serum (FBS), 1% penicillin/streptomycin, 1% 200 mM L-Glutamine and 1% nonessential amino acids (Lonza, Basel, Switzerland) at 37°C in a humidified atmosphere of 5% CO2. Stock solutions of the compounds were prepared in dimethyl sulfoxide (DMSO). All subsequent dilutions were prepared in serum-free DMEM and vehicle controls were included in all experiments
(§2) The growth inhibitory effects of the compounds were tested in the 3-cell line panel consisting of TK10 (renal), UACC62 (melanoma) and MCF7 (breast) cancer cells by Sulforhodamine B (SRB) assay. […] Compounds prepared in DMSO were tested at 0.01–100 µM serial dilutions to establish initial inhibitory concentrations. […] After 24 h exposure to compounds, growth medium was removed, cells rinsed twice with 1 ml of phosphate buffered saline (PBS) and 100 µl fresh serum-free medium containing 5 mg/ml MTT solution was added MTT solution was prepared fresh for each analysis). Cells were then incubated for 4 h at 37°C, after which the MTT was removed and substituted with 100 µl dimethyl sulfoxide (DMSO) to dissolve the formazan crystals for an h at 37°C. After incubation, cell viability was determined using a microplate reader (BioTek®, Vermont, USA) at an excitation wavelength of 560 nm and emission wavelength of 630 nm with DMSO measured as a blank. Cell viability was expressed as a percentage relative to the untreated control, which is assumed to be 100% viable. For a positive control, cells were treated with 0.01% Triton-X 100 (Sigma-Aldrich, St Louis, MO, USA) for a period of 4 h. Using the MTT assay data, IC50 values were calculated using GraphPad Prism 8. Data were normalized to the positive (alleged to be 0% viable) and negative controls (presumed to be 100% viable), followed by the log-transformation of the concentration values. […] A crude therapeutic index (fold decrease in IC50 value) was calculated as the IC50 of the noncancerous cell-line/IC50 of the cancerous cell line. […] Drug interactions were evaluated for synergism, additivity or antagonism using multiple drug effect analysis, based on the median-principle. Cells were treated with the drug combinations for 24 h and analyzed. The CompuSyn (ComboSyn, Inc. NJ, USA) software package was used to generate the median-effect plots and combination index plots. […] All experiments were performed at least in triplicate and repeated independently.
(§3) Next, the quantitative colorimetric MTT assay was used to determine in vitro cell viability with A375 (melanoma) and HaCat (nonmalignant keratinocyte) cells. […] The IC50 was used to determine a crude therapeutic index (fold increase or decline in IC50).

[2] = test system: HaCat normal keratinocytes; assay: MTT cell viability assay, HaCat; type: cell-based, human; settings: 24 h; for CC50: Homo sapiens, HaCaT, combinations 1:1, mean ± SD, read-out: HaCat IC50
Source text: as §1, §2, §3

[3] = test system: HaCat normal keratinocytes; assay: LDH release membrane integrity assay, HaCat; settings: compounds at their IC50 concentrations, 24 h; combinations 1:1; relative to maximum release
Source text: (§4) In order to determine cell membrane integrity, the CytoTox-ONE™ Homogeneous Membrane Integrity Assay (Promega, Madison, WO, USA) was employed. This fluorometric assay measures the release of LDH from cells with damaged cell membranes. […] The manufacturer’s instructions were followed to determine the fluorescence at an excitation wavelength of 560 nm and an emission wavelength of 590 nm. In order to calculate the percentage cytotoxicity, the average fluorescent values of the background medium were subtracted from all average fluorescent values of the experimental samples and the positive control. Cytotoxicity is expressed as a percentage relative to the positive control, which is assumed to be responsible for 100% LDH release. The fold increase in LDH release was taken as the indication of the selectivity toward melanoma cell membranes, calculated as the […]. All experiments were performed at least in triplicate and independently repeated. Statistical significant differences were calculated with one-way ANOVA.
(§5) Results are expressed relative to the untreated control and the maximum release sample, which was set as having 0% and 100% LDH release respectively. The LDH released from the nonmalignant HaCat cells and the A375 melanoma cells was then used to deduce the selectivity of the compounds against melanoma cell membranes.

A375 melanoma cells [4] = assay: LDH release membrane integrity assay, A375; type: cell-based, human; settings: for LDH release, result in words: IC50 concentrations, 24 h (Table 3, Figure 6C); for A375 (% LDH release): compounds at their IC50 concentrations, 24 h, combinations 1:1, relative to maximum release
Source text: as §4, §5

[5] = test system: HaCat normal keratinocytes; assay: Intracellular ROS, DCFH-DA assay, HaCat; type: cell-based, human; settings: 12 h treatment, result in words
Description: HaCat and A375 cells were seeded at 25,000 cells/well in 96-well plates (Black plate, Clear bottom, Corning, Costar®, NY, USA) and incubated until cells were ~90% confluent. Serum-free DMEM without phenol red (Thermo Fisher Scientific, Gibco, Carlsbad, CA, USA) was used for all experiments. Cells were exposed to compounds or H2O2 (500 µM) for 12 h. Cell staining with ROS fluorescent indicator 2’,7’-dichlorodihydrofluorescein diacetate (DCFH-DA) was performed 1.5 h before the end of the 12-h exposure time. A kinetic analysis was then performed at 37°C using a microplate reader (SpectraMax® ParadigmTM Molecular Devices, Sunnyvale, CA, USA) by measuring the DCF fluorescence (excitation 485 nm and emission 535 nm) every 10 min for 1 h. […] The Bradford assay (Coomassie blue colorimetric method) was then performed in order to determine the relative amount of protein per well, as an indication of cell number per well, and all fluorescence measurements were normalized relative to the cell number. The background fluorescence produced by blank medium controls and unstained but treated cell controls were subtracted from DCFH-DA stained cells. The DCF fluorescence measured at the beginning of the analysis (time 0) was subtracted from the DCF fluorescence at the indicated times for the kinetic analysis (results not shown). […]
The levels of intracellular ROS were determined using the DCFH-DA assay. […]

Structure (SMILES)	Therapeutic index (TI) (A375 melanoma cells [1]; IC50 of HaCat cells/IC50 of A375 cells)	IC50 (A375 melanoma cells [1]; results from elesclomol-Cu(II) reported in nM)	IC50 ([2]; results from elesclomol-Cu(II) reported in nM, combinations 1:1)	HaCat (% LDH release) [3]	LDH release, result in words (A375 melanoma cells [4])	A375 (% LDH release) (A375 melanoma cells [4])	Fold increase in LDH release (A375 melanoma cells [4]; selectivity toward melanoma cell membranes, A375 vs HaCat)	Intracellular ROS (DCF fluorescence fold change vs untreated control) [5]	IC50 (A375 melanoma cells [1]; Homo sapiens, A-375, mean ± SD)	CC50 [2]
CN([N-]C(=O)CC(=O)[N-]N(C)C(=[SH+])c1ccccc1)C(=[SH+])c1ccccc1.[Cu] [Elesclomol-Cu(II) 1-Cu, elesclomol-Cu(II)]	2.8	1.72 ± 0.23 nM	4.88 ± 0.56 nM	16 ± 0.79%	did not significantly increase the release of LDH	21 ± 0.94%	1.3	no significant increased intracellular ROS		
COc1cc([C@@H]2c3cc4c(cc3[C@@H](O[C@@H]3O[C@@H]5CO[C@@H](C)O[C@H]5[C@H](O)[C@H]3O)[C@H]3COC(=O)[C@H]23)OCO4)cc(OC)c1O [Etoposide 9, etoposide]				7 ± 0.31%	did not significantly increase the release of LDH	11 ± 0.56%			43700 ± 1370 nM	> 13000 µM
O=C(O)c1cc(/N=N/c2ccc(S(=O)(=O)Nc3ccccn3)cc2)ccc1O [Sulfasalazine 8, sulfasalazine]				35 ± 1.02%	did not significantly increase the release of LDH	21 ± 0.96%			569800 ± 2950 nM	2223 ± 5.37 µM
